As a reminder, the EC50 is the concentration that produces a half-maximal response.

Consider three compounds from US12692269B2, “Therapeutic compounds” (Genentech, Inc., priority 2019, dated 2026).

Type in all cases: binding
In one assay the target is TEAD1 YAP50-100 (Homo sapiens, UniProt P28347). Description: TEAD1-YAP HTRF (TR-FRET) protein-protein interaction assay. The settings on record: TEAD1, YAP peptide 50-100, HTRF; for EC50: read-out: TEAD1 YAP50-100 HTRF combined: EC50. Put shortly: (§1)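 Compounds were given 30 min to bind Eu anti-His-labelled TEAD (His-tagged, aa 217-447) before streptavidin-XL665-coupled biotin-YAP 50-100 or biotin-TAZ 13-57 peptide went in for a further 60 min at room temperature. Loss of 665/615 nm TR-FRET ratio gave IC50/EC50 via four-parameter curve fit.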
Chain of TEAD1 YAP50-100 (P28347 167-426 limits assumed): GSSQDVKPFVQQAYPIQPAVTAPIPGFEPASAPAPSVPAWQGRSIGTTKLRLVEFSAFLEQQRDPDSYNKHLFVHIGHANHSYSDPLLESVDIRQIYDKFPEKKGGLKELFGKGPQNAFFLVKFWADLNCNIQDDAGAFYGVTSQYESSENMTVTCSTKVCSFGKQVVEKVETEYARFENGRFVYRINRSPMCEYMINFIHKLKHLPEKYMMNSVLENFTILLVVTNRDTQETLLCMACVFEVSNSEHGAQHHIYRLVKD

Another assay deals with TEAD2 YAP50-100 (Homo sapiens, UniProt Q15562). As to the kind of experiment: TEAD2-YAP HTRF (TR-FRET) protein-protein interaction assay. The following applies: TEAD2, YAP peptide 50-100, HTRF; for EC50: read-out: TEAD2 YAP50-100 HTRF combined: EC50. Put shortly: as §1
Chain of TEAD2 YAP50-100 (Q15562 217-447): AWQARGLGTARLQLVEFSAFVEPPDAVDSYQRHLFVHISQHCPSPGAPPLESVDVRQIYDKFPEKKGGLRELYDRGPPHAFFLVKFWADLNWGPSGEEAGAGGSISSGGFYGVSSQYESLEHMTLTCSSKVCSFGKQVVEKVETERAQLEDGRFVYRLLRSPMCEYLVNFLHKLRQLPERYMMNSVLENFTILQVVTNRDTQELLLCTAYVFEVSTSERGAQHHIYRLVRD
In general terms: In TR-FRET formats the signal depends on donor and acceptor labels being close together.

A further assay deals with TEAD3 YAP50-100 (Homo sapiens, UniProt Q99594). Description: TEAD3-YAP HTRF (TR-FRET) protein-protein interaction assay. The following applies: TEAD3, YAP peptide 50-100, HTRF; for EC50: read-out: TEAD3 YAP50-100 HTRF combined: EC50. The method, boiled down:
as §1

The next assay deals with TEAD4 YAP50-100 (Homo sapiens, UniProt Q15561). Description: TEAD4-YAP HTRF (TR-FRET) protein-protein interaction assay. The settings on record: TEAD4, YAP peptide 50-100, HTRF; for EC50: read-out: TEAD4 YAP50-100 HTRF combined: EC50. Put shortly: as §1
Chain of TEAD4 YAP50-100 (Q15561 217-434 limits assumed): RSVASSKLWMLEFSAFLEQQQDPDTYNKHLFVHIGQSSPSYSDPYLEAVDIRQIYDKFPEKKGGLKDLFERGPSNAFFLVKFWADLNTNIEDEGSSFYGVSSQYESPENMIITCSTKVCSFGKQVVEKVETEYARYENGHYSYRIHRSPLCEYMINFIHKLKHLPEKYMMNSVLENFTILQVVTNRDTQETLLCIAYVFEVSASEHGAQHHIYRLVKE
Assay [1] deals with TEAD1 TAZ (amino acids 13-57) (Homo sapiens, UniProt P28347). As to the kind of experiment: TEAD1-TAZ HTRF (TR-FRET) protein-protein interaction assay. The settings on record: for TEAD1 TAZ HTRF combined: Max % Inhibition: TEAD1, TAZ peptide; for EC50: TEAD1-TAZ HTRF, TR-FRET 665 nm/615 nm, read-out: TEAD1 TAZ HTRF combined: EC50. Put shortly: as §1
Chain of TEAD1 TAZ (amino acids 13-57) (P28347 167-426 limits assumed): as the sequence (P28347 167-426 limits assumed) above
Assay [2] deals with TEAD2 TAZ (amino acids 13-57) (Homo sapiens, UniProt Q15562). Description: TEAD2-TAZ HTRF (TR-FRET) protein-protein interaction assay. The following applies: for TEAD2 TAZ HTRF combined: Max % Inhibition: TEAD2, TAZ peptide; for EC50: TEAD2-TAZ HTRF, TR-FRET 665 nm/615 nm, read-out: TEAD2 TAZ HTRF combined: EC50. The method, boiled down:
as §1

Assay [3] has as its target TEAD3 TAZ (amino acids 13-57) (Homo sapiens, UniProt Q99594). Description: TEAD3-TAZ HTRF (TR-FRET) protein-protein interaction assay. The settings on record: for TEAD3 TAZ HTRF combined: Max % Inhibition: TEAD3, TAZ peptide; for EC50: TEAD3-TAZ HTRF, TR-FRET 665 nm/615 nm, read-out: TEAD3 TAZ HTRF combined: EC50. Put shortly:
as §1

The target of assay [4] is TEAD4 TAZ (amino acids 13-57) (Homo sapiens, UniProt Q15561). As to the kind of experiment: TEAD4-TAZ HTRF (TR-FRET) protein-protein interaction assay. The following applies: for TEAD4 TAZ HTRF combined: Max % Inhibition: TEAD4, TAZ peptide; for EC50: TEAD4-TAZ HTRF, TR-FRET 665 nm/615 nm, read-out: TEAD4 TAZ HTRF combined: EC50. The method, boiled down:
as §1

Chain of TEAD3 TAZ (amino acids 13-57) (Q99594 173-435 limits assumed): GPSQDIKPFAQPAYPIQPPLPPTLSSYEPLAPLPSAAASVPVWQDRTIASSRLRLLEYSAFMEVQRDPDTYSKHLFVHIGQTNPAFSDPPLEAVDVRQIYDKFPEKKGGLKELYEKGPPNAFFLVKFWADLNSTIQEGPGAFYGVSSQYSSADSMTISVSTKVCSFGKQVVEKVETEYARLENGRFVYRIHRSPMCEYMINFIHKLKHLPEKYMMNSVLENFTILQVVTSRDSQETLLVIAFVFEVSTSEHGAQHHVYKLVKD
Chain of TEAD3 YAP50-100 (Q99594 173-435 limits assumed): as above
Chain of TEAD4 TAZ (amino acids 13-57) (Q15561 217-434 limits assumed): as the sequence (Q15561 217-434 limits assumed) above
Chain of TEAD2 TAZ (amino acids 13-57) (Q15562 217-447): as the sequence (Q15562 217-447) above

For the compound `CC(C)(C)c1ccc(COc2cc(=O)n3nc(-c4ncccn4)c(C(=O)N4CC(CF)C4)c3[nH]2)cc1` [Compound 54, 5-((4-(Tert-butyl)benzyl)oxy)-3-(3-(fluoromethyl)azetidine-1-carbonyl)-2-(pyrimidin-2-yl)pyrazolo[1,5-a]pyrimidin-7(4H)-one], at TEAD1 YAP50-100, the “TEAD1 YAP50-100 HTRF combined: Max % Inhibition” value was 71.0% and the EC50 came out at 50 nM. On TEAD2 YAP50-100, the “TEAD2 YAP50-100 HTRF combined: Max % Inhibition” value was determined as 59.0% and the EC50 stood at 20 nM. At TEAD3 YAP50-100, the “TEAD3 YAP50-100 HTRF combined: Max % Inhibition” value is reported as 56.5% and the EC50 worked out at 80 nM. At TEAD4 YAP50-100, the “TEAD4 YAP50-100 HTRF combined: Max % Inhibition” value is reported as 60.5% and the half-maximal effective concentration (EC50) was 40 nM. Moreover, in assay [1], the “TEAD1 TAZ HTRF combined: Max % Inhibition” value stood at 63.0% and the EC50 was 70 nM. Moreover, in assay [2], the “TEAD2 TAZ HTRF combined: Max % Inhibition” value was 59.5% and the 50% effective concentration (EC50) was found to be 20 nM. In assay [3], the “TEAD3 TAZ HTRF combined: Max % Inhibition” value came out at 45.0% and the EC50 was found to be 90 nM. In assay [4], the “TEAD4 TAZ HTRF combined: Max % Inhibition” value is reported as 56.0% and the EC50 came to 40 nM.

For `Cc1nccnc1-c1nn2c(=O)cc(-c3ccc(C4CCC(F)(F)CC4)cc3)[nH]c2c1C(=O)N1CC(CF)C1` [Compound 55, 5-(4-(4,4-Difluorocyclohexyl)phenyl)-3-(3-(fluoromethyl)azetidine-1-carbonyl)-2-(3-methylpyrazin-2-yl)pyrazolo[1,5-a]pyrimidin-7(4H)-one], at TEAD1 YAP50-100, the “TEAD1 YAP50-100 HTRF combined: Max % Inhibition” value is reported as 72.0% and the concentration for a half-maximal effect (EC50) came to 260 nM. Besides, on TEAD2 YAP50-100, the “TEAD2 YAP50-100 HTRF combined: Max % Inhibition” value came out at 56.5% and the 50% effective concentration (EC50) stood at 60 nM. At TEAD3 YAP50-100, the “TEAD3 YAP50-100 HTRF combined: Max % Inhibition” value came out at 62.0% and the concentration giving a half-maximal response (EC50) came out at 200 nM. Also, at TEAD4 YAP50-100, the “TEAD4 YAP50-100 HTRF combined: Max % Inhibition” value was determined as 44.5% and the 50% effective concentration (EC50) was 140 nM. Further, in assay [1], the “TEAD1 TAZ HTRF combined: Max % Inhibition” value came to 67.0% and the EC50 was 240 nM. In assay [2], the “TEAD2 TAZ HTRF combined: Max % Inhibition” value was 60.0% and the EC50 was 50 nM. For the same compound, in assay [3], the “TEAD3 TAZ HTRF combined: Max % Inhibition” value worked out at 55.0% and the EC50 is 210 nM. In assay [4], the “TEAD4 TAZ HTRF combined: Max % Inhibition” value is given as 39.5% and the concentration giving a half-maximal response (EC50) was 110 nM.

In the case of `Cc1nccnc1-c1nn2c(=O)cc(-c3ccc(C(F)(F)C4CCCC4)cc3)[nH]c2c1C(=O)N1CC(CF)C1` [Compound 56, 5-(4-(Cyclopentyldifluoromethyl)phenyl)-3-(3-(fluoromethyl)azetidine-1-carbonyl)-2-(3-methylpyrazin-2-yl)pyrazolo[1,5-a]pyrimidin-7(4H)-one], on TEAD1 YAP50-100, the “TEAD1 YAP50-100 HTRF combined: Max % Inhibition” value is reported as 57.0% and the EC50 turned out to be 60 nM. Besides, on TEAD2 YAP50-100, the “TEAD2 YAP50-100 HTRF combined: Max % Inhibition” value is 61.0% and the EC50 turned out to be 10 nM. Besides, at TEAD3 YAP50-100, the “TEAD3 YAP50-100 HTRF combined: Max % Inhibition” value came out at 49.5% and the EC50 was 100 nM. For the same compound, at TEAD4 YAP50-100, the “TEAD4 YAP50-100 HTRF combined: Max % Inhibition” value is given as 33.0% and the concentration giving a half-maximal response (EC50) came to 30 nM. In addition, in assay [1], the “TEAD1 TAZ HTRF combined: Max % Inhibition” value is given as 57.0% and the concentration giving a half-maximal response (EC50) is 70 nM. Moreover, in assay [2], the “TEAD2 TAZ HTRF combined: Max % Inhibition” value was 60.0% and the concentration for a half-maximal effect (EC50) worked out at 10 nM. In addition, in assay [3], the “TEAD3 TAZ HTRF combined: Max % Inhibition” value is 43.0% and the half-maximal effective concentration (EC50) stood at 110 nM. In assay [4], the “TEAD4 TAZ HTRF combined: Max % Inhibition” value is 35.0% and the concentration giving a half-maximal response (EC50) is 20 nM.
